For 17 molecules, MIC and EC50 results are on record in patent US12173018B2, “Penicillin-binding protein inhibitors” (priority 2018, dated 2024).

As a reminder, the EC50 is the concentration needed to bring the measured effect to its halfway point.

Experiment [1] concerns engineered strain of Escherichia coli harboring CTX-M15. Put plainly: microbe, parasite or virus in culture. The class given is cell-based. The conditions noted are these: Escherichia coli.
The target of the next experiment is E. coli PBP2 (Escherichia coli (strain K12), UniProt P0AD65). Put plainly: E. coli PBP2 Bocillin-FL fluorescence polarization competition binding assay. To be noted: fluorescence polarization competition binding with Bocillin-FL; read-out: E. coli K12 PBP2 Potency (EC50). In a few lines:
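Purified PBP2 at 1.5 μM final was preincubated with boronic acid inhibitor, then Bocillin-FL added to 0.1 μM final in Hepes pH 8.0/NaCl/glycerol buffer. Polarization was monitored 90 min; the concentration halving probe binding is reported as EC50.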

In the next experiment the target is E. coli PBP1b (Escherichia coli (strain K12), UniProt P02919). Put plainly: Radioligand competition binding assay with 14C-labeled boronic acid probe, PBP1b.
[2] abbreviates: read-out: Microbiological Activity (MIC in mg/L), E. coli DH5α/pLBII-CTX-M15, engineered strain producing CTX-M15.

≈ marks a conversion by molar mass, not a printed value. Where two headings read alike, the source gives them in different places. Where only a bound is given, the exact number is not on record here.

Chain of E. coli PBP1b (P02919 whole entry): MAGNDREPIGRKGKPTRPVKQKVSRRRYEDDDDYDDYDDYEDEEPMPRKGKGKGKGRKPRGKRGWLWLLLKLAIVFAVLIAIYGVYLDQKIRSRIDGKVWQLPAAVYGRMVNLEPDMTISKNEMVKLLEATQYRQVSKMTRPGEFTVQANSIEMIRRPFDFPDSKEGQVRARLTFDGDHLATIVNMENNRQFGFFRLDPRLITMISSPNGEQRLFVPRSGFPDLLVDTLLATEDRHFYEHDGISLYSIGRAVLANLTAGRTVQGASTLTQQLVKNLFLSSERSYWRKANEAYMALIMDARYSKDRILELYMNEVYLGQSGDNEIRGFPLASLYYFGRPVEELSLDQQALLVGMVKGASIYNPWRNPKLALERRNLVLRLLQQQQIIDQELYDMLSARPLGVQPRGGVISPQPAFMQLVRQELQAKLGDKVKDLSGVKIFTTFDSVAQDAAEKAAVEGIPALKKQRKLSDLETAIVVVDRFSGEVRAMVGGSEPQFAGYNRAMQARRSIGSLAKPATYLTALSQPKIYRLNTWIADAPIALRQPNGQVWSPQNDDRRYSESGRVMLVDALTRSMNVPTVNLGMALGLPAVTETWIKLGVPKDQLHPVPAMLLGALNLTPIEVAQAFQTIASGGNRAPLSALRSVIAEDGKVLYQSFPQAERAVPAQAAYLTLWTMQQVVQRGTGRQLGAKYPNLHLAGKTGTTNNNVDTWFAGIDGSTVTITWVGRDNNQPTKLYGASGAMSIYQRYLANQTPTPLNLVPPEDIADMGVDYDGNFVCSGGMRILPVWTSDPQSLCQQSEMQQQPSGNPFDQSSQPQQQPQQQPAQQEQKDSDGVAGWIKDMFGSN
Chain of E. coli PBP2 (P0AD65 whole entry): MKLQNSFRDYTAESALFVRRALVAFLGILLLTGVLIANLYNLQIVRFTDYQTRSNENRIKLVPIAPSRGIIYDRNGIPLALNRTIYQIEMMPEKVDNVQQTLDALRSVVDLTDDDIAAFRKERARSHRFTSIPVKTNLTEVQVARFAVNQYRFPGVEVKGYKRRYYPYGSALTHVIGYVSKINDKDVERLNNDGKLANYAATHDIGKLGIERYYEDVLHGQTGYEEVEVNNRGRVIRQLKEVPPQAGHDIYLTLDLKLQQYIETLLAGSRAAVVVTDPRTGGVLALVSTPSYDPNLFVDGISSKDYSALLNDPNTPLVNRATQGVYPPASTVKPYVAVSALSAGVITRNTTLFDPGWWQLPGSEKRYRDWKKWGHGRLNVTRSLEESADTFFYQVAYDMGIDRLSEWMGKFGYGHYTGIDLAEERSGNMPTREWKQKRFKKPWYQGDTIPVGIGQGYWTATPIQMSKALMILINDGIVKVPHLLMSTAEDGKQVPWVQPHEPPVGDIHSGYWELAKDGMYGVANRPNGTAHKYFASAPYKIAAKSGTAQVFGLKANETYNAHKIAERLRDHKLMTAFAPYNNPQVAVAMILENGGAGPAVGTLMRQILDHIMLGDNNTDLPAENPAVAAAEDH

For `CCN1CCN(C(=O)NC(C(=O)N[C@H]2Cc3cc(F)cc(C(=O)O)c3OB2O)c2csc(N)n2)C(=O)C1=O` (stereo partly drawn) [Example 16, (3R)-3-(2-(2-aminothiazol-4-yl)-2-(4-ethyl-2,3-dioxopiperazine-1-carboxamido)acetamido)-6-fluoro-2-hydroxy-3,4-dihydro-2H-benzo[e][1,2]oxaborinine-8-carboxylic acid], the MIC in experiment [1] (setting [2]) was 32 to 64 mg/L (≈ 58.4 to 117 µM). Also, the concentration giving a half-maximal response (EC50) on E. coli PBP2 is > 500 µM.

As for `CCN1CCN(C(=O)NC(C(=O)N[C@H]2Cc3cccc(C(=O)O)c3OB2O)c2ccc(O)c(O)c2Cl)C(=O)C1=O` (stereo partly drawn) [Example 37, (3R)-3-(2-(2-chloro-3,4-dihydroxyphenyl)-2-(4-ethyl-2,3-dioxopiperazine-1-carboxamido)acetamido)-2-hydroxy-3,4-dihydro-2H-benzo[e][1,2]oxaborinine-8-carboxylic acid], the MIC in experiment [1] (setting [2]) was in the range of 8 to 16 mg/L (≈ 13.9 to 27.8 µM).

Regarding `CCN1CCN(C(=O)NC(C(=O)N[C@H]2Cc3cccc(C(=O)O)c3OB2O)c2cnc(N)s2)C(=O)C1=O` (stereo partly drawn) [Example 51, (3R)-3-(2-(2-aminothiazol-5-yl)-2-(4-ethyl-2,3-dioxopiperazine-1-carboxamido)acetamido)-2-hydroxy-3,4-dihydro-2H-benzo[e][1,2]oxaborinine-8-carboxylic acid], the EC50 on E. coli PBP2 is > 500 µM; at E. coli PBP1b it was 10 to 100 µM.

In the case of `CCCN1CCN(C(=O)NC(C(=O)N[C@H]2Cc3cccc(C(=O)O)c3OB2O)c2ccc(O)c(O)c2Cl)C(=O)C1=O` (stereo partly drawn) [Example 82, (3R)-3-(2-(2-chloro-3,4-dihydroxyphenyl)-2-(2,3-dioxo-4-propylpiperazine-1-carboxamido)acetamido)-2-hydroxy-3,4-dihydro-2H-benzo[e][1,2]oxaborinine-8-carboxylic acid], the MIC in experiment [1] (setting [2]) was in the range of 32 to 64 mg/L (≈ 54.4 to 109 µM). Further, on E. coli PBP1b, the EC50 fell in the range of 10 to 100 µM.

Regarding `CCN1CCN(C(=O)NC(C(=O)N[C@H]2Cc3cccc(C(=O)O)c3OB2O)c2ccc(O)cc2F)C(=O)C1=O` (stereo partly drawn) [Example 87, (3R)-3-(2-(4-ethyl-2,3-dioxopiperazine-1-carboxamido)-2-(2-fluoro-4-hydroxyphenyl)acetamido)-2-hydroxy-3,4-dihydro-2H-benzo[e][1,2]oxaborinine-8-carboxylic acid], the MIC in experiment [1] (setting [2]) lay within 32 to 64 mg/L (≈ 59 to 118 µM). The EC50 on E. coli PBP2 was > 500 µM.

`CCN1CCN(C(=O)NC(C(=O)N[C@H]2Cc3cccc(C(=O)O)c3OB2O)c2cc(O)c(O)cc2F)C(=O)C1=O` (stereo partly drawn) [Example 90, (3R)-3-(2-(4-ethyl-2,3-dioxopiperazine-1-carboxamido)-2-(2-fluoro-4,5-dihydroxyphenyl)acetamido)-2-hydroxy-3,4-dihydro-2H-benzo[e][1,2]oxaborinine-8-carboxylic acid]: in experiment [1] (setting [2]), the MIC lay in the range of 8 to 16 mg/L (≈ 14.3 to 28.7 µM). Besides, the concentration giving a half-maximal response (EC50) on E. coli PBP2 is > 500 µM.

Take `CCN1CCN(C(=O)NC(C(=O)N[C@H]2Cc3cccc(C(=O)[O-])c3OB2O)c2ccc[n+](CC(N)=O)c2)C(=O)C1=O` (stereo partly drawn) [Example 107, (3R)-3-(2-(1-(2-amino-2-oxoethyl)pyridin-1-ium-3-yl)-2-(4-ethyl-2,3-dioxopiperazine-1-carboxamido)acetamido)-2-hydroxy-3,4-dihydro-2H-benzo[e][1,2]oxaborinine-8-carboxylate]: the MIC in experiment [1] (setting [2]) lay in the range of 32 to 64 mg/L (≈ 56.5 to 113 µM). Besides, at E. coli PBP1b, the EC50 was > 100 µM.

On to `CCN1CCN(C(=O)NC(C(=O)N[C@H]2Cc3cccc(C(=O)O)c3OB2O)c2ccc(B(O)O)cc2)C(=O)C1=O` (some centres unmarked) [Example 112], for which the MIC in experiment [1] (read-out: Microbiological Activity (MIC in mg/L), E. coli DH5α/pLBII-CTX-M15) lay in the range of 32 to 64 mg/L (≈ 58 to 116 µM). In addition, the half-maximal effective concentration (EC50) at E. coli PBP1b was > 100 µM.

Turning to `O=C(O)c1cccc2c1OB(O)[C@@H](NC(=O)C(NC(=O)N1CCN(CCF)C(=O)C1=O)c1ccc(B(O)O)cc1)C2` (stereo partly drawn) [Example 113, (3R)-3-(2-(4-boronophenyl)-2-(4-(2-fluoroethyl)-2,3-dioxopiperazine-1-carboxamido)acetamido)-2-hydroxy-3,4-dihydro-2H-benzo[e][1,2]oxaborinine-8-carboxylic acid], the MIC in experiment [1] (setting [2]) lay in the range of 32 to 64 mg/L (≈ 56.1 to 112 µM). Besides, the EC50 on E. coli PBP1b was > 100 µM.

With `CCN1CCN(C(=O)NC(C(=O)N[C@H]2Cc3cccc(C(=O)O)c3OB2O)c2cccs2)C(=O)C1=O` (stereo partly drawn) [Example 115, (3R)-3-(2-(4-ethyl-2,3-dioxopiperazine-1-carboxamido)-2-(thiophen-2-yl)acetamido)-2-hydroxy-3,4-dihydro-2H-benzo[e][1,2]oxaborinine-8-carboxylic acid], in experiment [1] (setting [2]), the MIC is 32 to 64 mg/L (≈ 62.2 to 124 µM). In addition, at E. coli PBP1b, the 50% effective concentration (EC50) was > 100 µM.

In the case of `CCN1CCN(C(=O)NC(C(=O)N[C@H]2Cc3ccc(F)c(C(=O)O)c3OB2O)c2ccc(O)c(O)c2Cl)C(=O)C1=O` (stereo partly drawn) [Example 124, (3R)-3-(2-(2-chloro-3,4-dihydroxyphenyl)-2-(4-ethyl-2,3-dioxopiperazine-1-carboxamido)acetamido)-7-fluoro-2-hydroxy-3,4-dihydro-2H-benzo[e][1,2]oxaborinine-8-carboxylic acid], at E. coli PBP1b, the EC50 was < 10 µM.

Take `CCCN1CCN(C(=O)NC(C(=O)N[C@H]2Cc3ccc(F)c(C(=O)O)c3OB2O)c2ccc(O)c(O)c2Cl)C(=O)C1=O` (some centres unmarked) [Example 125]: the concentration for a half-maximal effect (EC50) at E. coli PBP1b is < 10 µM.

For the molecule `CCN1CCN(C(=O)NC(C(=O)N[C@H]2Cc3cccc(C(=O)O)c3OB2O)c2ncc(O)cc2F)C(=O)C1=O` (stereo partly drawn) [Example 135, (3R)-3-(2-(4-ethyl-2,3-dioxopiperazine-1-carboxamido)-2-(3-fluoro-5-hydroxypyridin-2-yl)acetamido)-2-hydroxy-3,4-dihydro-2H-benzo[e][1,2]oxaborinine-8-carboxylic acid], the half-maximal effective concentration (EC50) at E. coli PBP2 fell in the range of 30 to 500 µM.

In turn, `CCN1CCN(C(=O)NC(C(=O)N[C@H]2Cc3ccc(F)c(C(=O)O)c3OB2O)c2cc(O)c(O)cc2F)C(=O)C1=O` (stereo partly drawn) [Example 136, (3R)-3-(2-(4-ethyl-2,3-dioxopiperazine-1-carboxamido)-2-(2-fluoro-4,5-dihydroxyphenyl)acetamido)-7-fluoro-2-hydroxy-3,4-dihydro-2H-benzo[e][1,2]oxaborinine-8-carboxylic acid] showed a 50% effective concentration (EC50) at E. coli PBP1b of 10 to 100 µM.

In the case of `CCN1CCN(C(=O)NC(C(=O)N[C@H]2Cc3ccc(F)c(C(=O)O)c3OB2O)c2ncc(O)cc2F)C(=O)C1=O` (stereo partly drawn) [Example 145, (3R)-3-(2-(4-ethyl-2,3-dioxopiperazine-1-carboxamido)-2-(3-fluoro-5-hydroxypyridin-2-yl)acetamido)-7-fluoro-2-hydroxy-3,4-dihydro-2H-benzo[e][1,2]oxaborinine-8-carboxylic acid], the EC50 at E. coli PBP1b is > 100 µM.

As for `CCN1CCN(C(=O)NC(C(=O)N[C@H]2Cc3cccc(C(=O)O)c3OB2O)c2ncc(O)cc2Cl)C(=O)C1=O` (stereo partly drawn) [Example 150, (3R)-3-(2-(4-ethyl-2,3-dioxopiperazine-1-carboxamido)-2-(3-chloro-5-hydroxypyridin-2-yl)acetamido)-2-hydroxy-3,4-dihydro-2H-benzo[e][1,2]oxaborinine-8-carboxylic acid], the concentration for a half-maximal effect (EC50) at E. coli PBP2 is > 500 µM.

`CCN1CCN(C(=O)NC(C(=O)N[C@H]2Cc3ccc(F)c(C(=O)O)c3OB2O)c2ncc(O)cc2Cl)C(=O)C1=O` (stereo partly drawn) [Example 151, (3R)-3-(2-(3-chloro-5-hydroxypyridin-2-yl)-2-(4-ethyl-2,3-dioxopiperazine-1-carboxamido)acetamido)-7-fluoro-2-hydroxy-3,4-dihydro-2H-benzo[e][1,2]oxaborinine-8-carboxylic acid]: the EC50 at E. coli PBP2 is > 500 µM.
